One test concerns Haemonchus contortus. In words: In vivo efficacy against Haemonchus contortus in Mongolian jird (Meriones unguiculatus).
Test [1] relates to Trichostrongylus colubriformis. Put plainly: In vivo efficacy against Trichostrongylus colubriformis in Mongolian jird (Meriones unguiculatus).
The test system of test [2] is microfilariae of Dirofilaria immitis. Put plainly: Screening of activity against microfilaria of Dirofilaria immitis (motility, dose response). The note with it: 72 h, read-out: EC50 (motility of the microfilaria). In kind it is cell-based.
For test [3], the system named is L1 Haemonchus contortus larvae. Put plainly: Screening of activity against Haemonchus contortus (larval development L1 to L3, dose response). In kind it is cell-based. The note with it: 96 h, read-out: EC50 (development of the larvae from L1 to L3).
The subject of the next test is Dirofilaria immitis. Put plainly: In vivo efficacy against Dirofilaria immitis in immunodeficient NSG mice. The note with it: vs control group.
Where [4] appears, read: Study 1, jird, 10 mg/kg, positive control.
[5] abbreviates: Study 2, jird, 10 mg/kg, positive control.
[6] abbreviates: Study 3, jird, 10 mg/kg, positive control.
The mark [7] stands for this setting: Study 4, jird, 10 mg/kg, positive control.
Where [8] appears, read: Study 1, jird, 25 mg/kg oral gavage, necropsy 3 days after treatment.
The mark [9] stands for this setting: Study 3, jird, 25 mg/kg oral gavage.
[10] abbreviates: Study 4, jird, 5 mg/kg oral gavage.
Where [11] appears, read: Study 4, jird, 25 mg/kg oral gavage.
[12] abbreviates: Study #3, NSG mice, 25 mg/kg oral.
The mark [13] stands for this setting: Study 2, jird, 25 mg/kg oral gavage.
Setting [14] is: Study #2, NSG mice, 25 mg/kg oral.
Setting [15] is: Study #2, NSG mice, 50 mg/kg oral.

pEC50: −log10 of the molar value.

For the molecule `c1ccc([C@H]2CN3CCSC3=N2)cc1` [Levamisole, levamisole, reference compound], the “% Reduction H. contortus” value with Haemonchus contortus (setting [4]) is listed as 98.4%; in the test on Haemonchus contortus (setting [5]) it was 100.0%; in the test with Haemonchus contortus (setting [6]), 100.0%; in the test on Haemonchus contortus (setting [7]) it was 99.8%. Besides, the “% Reduction T. columbriformis” value in test [1] (setting [4]) was 89.1%; in test [1] (setting [5]), 96.4%; in test [1] (setting [6]), 100.0%; in test [1] (setting [7]), 72.2%.
For the molecule `CC(C)(F)c1c(C(=O)N[C@H]2CCOc3ccccc32)sc2c(-c3cc(Cl)cc(Cl)c3)c(F)cnc12` [Compound 263], the “% Reduction H. contortus” value in the test with Haemonchus contortus (setting [8]) is 100.0%. Moreover, the “% Reduction T. columbriformis” value in test [1] (setting [8]) is given as 100.0%.
A word on the pEC50: it is the negative decadic logarithm of the EC50, by convention in mol/L. Turning to `O=C(N[C@H]1CCOc2ccccc21)c1sc2c(-c3cc(F)cc(F)c3)ccnc2c1C(F)F` [Compound 205], the pEC50 in test [2] and in test [3] was 5.00 to 7.00 in each case.
In the case of `C=C(C)c1c(C(=O)N[C@H]2CCOc3ccccc32)sc2c(-c3cc(Cl)cc(Cl)c3)ccnc12` [Compound 285], the “% Reduction H. contortus” value in the test with Haemonchus contortus (setting [8]) was 100.0%. Further, the “% Reduction T. columbriformis” value in test [1] (setting [8]) is 100.0%.
`CC(C)c1c(C(=O)N[C@H]2CCOc3ccccc32)sc2c(-c3cc(F)cc(F)c3)c(F)cnc12` [Compound 204]: the “% Reduction worms” value in the test with Dirofilaria immitis (Study #1, NSG mice, 50 mg/kg oral at Days 1, 15, 30 post-infection) came out at 65%. The “% Reduction H. contortus” value in the test on Haemonchus contortus (setting [9]) was found to be 100.0%; in the test with Haemonchus contortus (setting [10]), 50.1%. Also, the “% Reduction T. columbriformis” value turned out to be 100.0% in test [1] (setting [9]) and 22.2% in test [1] (setting [10]).
As for `C=C(C)c1c(C(=O)N[C@H]2CCOc3ccccc32)sc2c(-c3cc(F)cc(F)c3)cnnc12` [Compound 239-INT-1], in test [3], the pEC50 is 5.00 to 7.00.
As to `CC(C)c1c(C(=O)N[C@H]2CCOc3ccc(F)cc32)sc2c(-c3cc(F)cc(F)c3)c(F)cnc12` [Compound 260], the “% Reduction H. contortus” value in the test with Haemonchus contortus (setting [11]) is 23.5%. Further, the “% Reduction T. columbriformis” value in test [1] (setting [11]) is 45.8%.
On to `O=C(N[C@H]1CCOc2ccccc21)c1sc2c(-c3cc(F)cc(F)c3)ccnc2c1C(F)(F)C(F)(F)F` [Compound 238], for which the pEC50 is over 8.00 in test [2] and 5.00 to 7.00 in test [3].
For `CC(C)(F)c1c(C(=O)N[C@H]2CCOc3ccc(F)cc32)sc2c(-c3cc(Cl)cc(Cl)c3)ccnc12` [Compound 259], the “% Reduction H. contortus” value with Haemonchus contortus (setting [11]) is listed as 100.0%. For the same molecule, the “% Reduction T. columbriformis” value in test [1] (setting [11]) is reported as 99.5%.
`CC(C)c1c(C(=O)N[C@H]2CCOc3ccccc32)sc2c(-c3cc(F)cc(F)c3)c(Cl)cnc12` [Compound 310]: the pEC50 in test [2] was 5.00 to 7.00; in test [3] it was over 7.00.
`CC(C)(C)c1c(C(=O)N[C@H]2CCOc3ccccc32)sc2c(-c3cc(F)cc(F)c3)ccnc12` [Compound 210]: the “% Reduction worms” value in the test with Dirofilaria immitis (setting [12]) was determined as 55%. In addition, the “% Reduction H. contortus” value in the test on Haemonchus contortus (setting [9]) is 100.0%. Also, the “% Reduction T. columbriformis” value in test [1] (setting [9]) is reported as 100.0%.
Consider `C[C@@H]1C[C@H](C)CN(c2ccnc3c(N4CCOCC4)c(C(=O)N[C@H]4CCOc5ccccc54)sc23)C1` [Compound 217], for which the pEC50 in test [2] is 5.00 to 7.00.
As to `CC(C)c1c(C(=O)N[C@H]2CCOc3ccc(F)cc32)sc2c(-c3cc(F)cc(F)c3)ccnc12` [Compound 257], the “% Reduction worms” value in the test on Dirofilaria immitis (setting [12]) came out at 45%.
As for `CC(C)(O)c1c(C(=O)N[C@H]2CCOc3ccccc32)sc2c(-c3ccnc(Cl)c3)ccnc12` [Compound 268-4], the pEC50 in test [3] is 5.00 to 7.00.
On to `CC(C)c1c(C(=O)N[C@H]2CCOc3ccccc32)sc2c(C3CCCCC3)ccnc12` [Compound 223], for which the figures for the negative-log EC50 (pEC50) in test [2] and in test [3] were over 8.00 and 5.00 to 7.00, respectively.
Turning to `CC(C)c1c(C(=O)N[C@H]2CCOc3ccc(F)cc32)sc2c(-c3cc(Cl)cc(Cl)c3)ccnc12` [Compound 211], in the test with Dirofilaria immitis (Study #1, NSG mice, 25 mg/kg oral at Days 1, 15, 30 post-infection), the “% Reduction worms” value was 61%. Also, in the test with Haemonchus contortus (setting [9]), the “% Reduction H. contortus” value was determined as 100.0%. Also, the “% Reduction T. columbriformis” value in test [1] (setting [9]) was determined as 100.0%.
As for `CC(=O)c1c(C(=O)N[C@H]2CCOc3ccc(F)cc32)sc2c(-c3cc(Cl)cc(Cl)c3)ccnc12` [Compound 259-4], the pEC50 in test [2] was 5.00 to 7.00.
Turning to `CC(C)(O)c1c(C(=O)N[C@H]2CCOc3ccccc32)sc2c(-c3cc(Cl)cc(Cl)c3)c(F)cnc12` [Compound 263-8], the pEC50 was over 8.00 in test [2] and over 7.00 in test [3]. In addition, the “% Reduction H. contortus” value in the test on Haemonchus contortus (setting [13]) and in the test with Haemonchus contortus (setting [10]) was 99.8% in each case. In addition, the “% Reduction T. columbriformis” value in test [1] (setting [13]) came out at 100.0%; in test [1] (setting [10]) it was 99.9%.
As for `O=C(N[C@H]1CCOc2ccccc21)c1sc2c(-c3cc(F)cc(F)c3)cccc2c1C1=CCOCC1` [Compound 102-1], the pEC50 in test [3] is 5.00 to 7.00.
With `C=C(C)c1c(C(=O)N[C@H]2CCOc3ccccc32)sc2c(-c3cc(F)cc(F)c3)ccnc12` [Compound 119], in test [3], the pEC50 was 5.00 to 7.00. The “% Reduction worms” value was determined as 67% with Dirofilaria immitis (setting [14]) and 37% in the test with Dirofilaria immitis (setting [15]).
For the molecule `CC(C)c1c(C(=O)N[C@H]2CCOc3ccccc32)sc2c(-c3cc(F)cc(F)c3)ccnc12` [Compound 120], the “% Reduction worms” value in the test with Dirofilaria immitis (setting [14]) worked out at 47%; in the test with Dirofilaria immitis (setting [15]), 33%.
Turning to `CC(C)c1c(C(=O)N[C@H]2CCOc3ccccc32)sc2c(C3(F)CCCCC3)ccnc12` [Compound 255, N-[(4S)-3,4-dihydro-2H-1-benzopyran-4-yl]-7-(1-fluorocyclohexyl)-3-isopropylthieno[3,2-b]pyridine-2-carboxamide], in test [3], the pEC50 was 5.00 to 7.00.
As to `CC(C)(F)c1c(C(=O)N[C@H]2CCOc3ccccc32)sc2c(-c3cc(Cl)cc(Cl)c3)cncc12` [Compound 264, 7-(3,5-dichlorophenyl)-N-[(4S)-3,4-dihydro-2H-1-benzopyran-4-yl]-3-(2-fluoropropan-2-yl)thieno[3,2-c]pyridine-2-carboxamide], the pEC50 is over 8.00 in test [2] and over 7.00 in test [3].
`CC(C)(O)c1c(C(=O)N[C@H]2CCOc3ccccc32)sc2c(-c3cc(Cl)cc(Cl)c3)cncc12` [Compound 264-0, 7-(3,5-dichlorophenyl)-N-[(4S)-3,4-dihydro-2H-1-benzopyran-4-yl]-3-(2-hydroxypropan-2-yl)thieno[3,2-c]pyridine-2-carboxamide]: in test [3], the pEC50 was over 7.00.
As for `CC(C)(F)c1c(C(=O)N[C@H]2CCOc3ccccc32)sc2c(-c3cc(Cl)cc(Cl)c3)ccnc12` [Compound 212], the “% Reduction worms” value with Dirofilaria immitis (Study #1, NSG mice, 23 mg/kg (table) oral at Days 1, 15, 30 post-infection) amounted to 13%.
`CC(C)c1c(C(=O)N[C@H]2CCOc3ccccc32)sc2c(-c3cccc(F)c3)ccnc12` [Compound 207]: in the test with Dirofilaria immitis (setting [12]), the “% Reduction worms” value was 55%.
As for `Cc1cc(F)cc(C)c1-c1ccnc2c(C(C)C)c(C(=O)N[C@H]3CCOc4ccccc43)sc12` [Compound 201, N-[(4S)-3,4-dihydro-2H-1-benzopyran-4-yl]-7-(4-fluoro-2,6-dimethylphenyl)-3-isopropylthieno[3,2-b]pyridine-2-carboxamide], in test [3], the pEC50 was 5.00 to 7.00.

The record behind these values is patent US11560388B2, “Anthelmintic aza-benzothiophene and aza-benzofuran compounds” (Boehringer Ingelheim Vetmedica GmbH, priority 2019, dated 2023).
